These results are taken from patent US6958151B2 (priority 2002, dated 2005).

One series relates to POW virus. More on the design: species or system NIH Swiss mice. As to conditions: mouse, in vivo.
For series [1] the following is noted: iv via tail vein, five consecutive days, 16.7 μg/day, 10-day observation.
The target in the next series is WN-E-D3 (West Nile virus, UniProt Q9Q6P4). The format is binding.

Take RCCHPQCKEGKKCR (SEQ ID NO:157) [MP-100]: in the series on POW virus, the chance for survival result was “increases their chance for survival” and the “onset of disease / illness” value is “delay in onset of disease”. In series [1], the toxicity to mice result is given as “neither of the agents is toxic”. For RCCREPCKEGRKCR [MP-106], the “selected by binding (phage display)” value with WN-E-D3 is given as “selected by binding to WN-E-D3”.

As for RCCTLRCKEGKKCR [MP-108], the “selected by binding (phage display)” value with WN-E-D3 is recorded as “selected by binding to WN-E-D3”. As for RCCVSVCKEGKKCR [MP-107], in the series with WN-E-D3, the “selected by binding (phage display)” value is recorded as “selected by binding to WN-E-D3”.
